Substitutions are numbered along the chain they refer to.
What was measured:
[1] = molecular target: T1, MLKL F148A executioner domain (Homo sapiens, UniProt Q8NB16, F148A); assay: Functional NMR assay (detachment of α-helix 6), F148A variant; format: biochemical
T1 construct: 80 µM MLKL N-terminal executioner domain (residues 1 to 154) was used; GST (thrombin cleavage site) (cleaved yes)
T1 sequence (Q8NB16 1-154 F148A): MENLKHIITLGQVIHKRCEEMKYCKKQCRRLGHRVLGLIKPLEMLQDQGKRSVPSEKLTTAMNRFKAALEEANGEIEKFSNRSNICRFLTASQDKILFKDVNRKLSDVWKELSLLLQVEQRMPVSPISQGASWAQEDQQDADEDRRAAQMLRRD
Description: To test the significance of the additional interaction between α-helix 6 and the four-helix bundle provided by the xanthine compounds stacking to the phenyl ring of Phe148, we used a described functional NMR assay ([12]). Binding of phytic acid (IP6) and the detergent β-D-nonylmaltoside (NM) led to the detachment of α-helix 6, which can be monitored in ^1H,^15N-correlation spectra by the altered chemical shift of the Hε1–Nε1 correlation of Trp133 and the backbone N–H correlation of Ala141 ([12]). […] Adding 12 mM NM or 500 µM IP6 led to the appearance of a second very weak peak reporting on the detached α-helix 6 with a population of the activated state (pact) of 1% and 4%, respectively (Fig. 3). […]
Fig. 3. […] The spectra depicted in A are measured with the WT protein and in B with the F148A variant. […] The asterisk means that no active conformation could be detected. Double asterisks indicate data not determined.
For the functional NMR assay ^1H,^15N-correlation spectra were recorded on a Bruker Avance III HD 600-MHz NMR spectrometer equipped with a cryogenic QCI probe in 2.5-mm NMR tubes at 298 K. Spectra were recorded with 64 complex points in the indirect dimension, 96 scans, and an interscan delay of 2 s. […] Spectra were analyzed, and peaks were integrated in CcpNnmr analysis ([39]).

MLKL executioner domain = molecular target: T2, MLKL executioner domain (Homo sapiens, UniProt Q8NB16); assay: NMR diffusion experiments (hydrodynamic radius); format: biochemical
T2 construct: 80 µM MLKL N-terminal executioner domain (residues 1 to 154) was used; GST (thrombin cleavage site) (cleaved yes)
T2 sequence (Q8NB16 1-154): T1 sequence (Q8NB16 1-154 F148A) with A148F
Method: To further characterize the oligomerized MLKL executioner domain, NMR diffusion experiments were conducted directly succeeding the end of the real-time NMR series (orange dots in Fig. 5A). This was compared with a fresh sample of unliganded MLKL executioner domain (black dots in Fig. 5A).
In a next step, we conducted NMR diffusion experiments with NM concentrations above and below the critical micelle concentration of 6 mM, to find out if the increased hydrodynamic radius of the MLKL executioner domain is dependent on the presence of micelles. […] The presence of 500 µM IP6 and 500 µM Cpd 3 had no influence on the hydrodynamic radius of NM (SI Appendix, Fig. S12). […] Therefore, the oligomerization depends on micelles, and the observed species is most likely a micelle-integrated oligomeric MLKL executioner domain. […]
NMR diffusion experiments were recorded as pseudo two-dimensional experiments with varying gradient strength either as a ^15N-filtered NMR experiment ([42]) (recorded with ^15N-labeled protein). […]
where d is the diffusion constant. […] The hydrodynamic radius was calculated by using the determined diffusion constants of the component of interest (d) and dioxane (ddioxane) and the known hydrodynamic radius of dioxan (2.12 Å) ([23]) using Eq. 4. rH=2.12Å⋅ddioxane/d, [4] […]

`Cn1c(=O)c2c(nc(S(C)(=O)=O)n2C)n(CC#Cc2cccc(O)c2)c1=O` [Cpd 3] was tested. Which “Induction of the active state by compound alone” value ([1]; 500 µM compound alone) did it give?
The value was “small population of the active state”.

And the “Population of the activated state (pact), α-helix 6 detached” value ([1]; 12 mM NM + 500 µM IP6 + 500 µM compound)?
The value was 90%.

What about the “Oligomeric state of the MLKL executioner domain” value (MLKL executioner domain; 12 mM NM + 500 µM IP6 + 500 µM Cpd 3, after 2 d of incubation, 57 Å without compound) of the same compound?
Its value is “completely monomeric”.

What about the “Hydrodynamic radius of the MLKL executioner domain” value (MLKL executioner domain; complex with 500 µM Cpd 3, 12 mM NM + 50 µM IP6, after time course, 60 Å without Cpd 3, 19 Å unliganded) of the same compound?
Its value is 30 Å.

Reference: paper PMC7777204, “Locking mixed-lineage kinase domain-like protein in its auto-inhibited state prevents necroptosis” (Proceedings of the National Academy of Sciences of the …, 2020)
